Our source for the cytotoxicity values is ChEMBL document CHEMBL3507680, “University of Dundee, Gates Library screen for HepG2 cell viability”.

A short description of this data set: Human HepG2 cell viability assay in 384 well format. Format: toxicity, cell-based. On the set-up: dose 125 nL, time 70.5 hour; cytotoxicity at 70.5 h: concentration not given beside the values. The note with it: HepG2 cells, read-out: Inhibition.
Turning to `COc1cc(-c2cccc3c2OC(CN)C3)ccc1O` (centres undefined), the cytotoxicity at 70.5 h is 14.1%.

Consider `CSCCCNc1nccc(-c2cc(C(=O)O)ccn2)n1`, for which the cytotoxicity at 70.5 h was -7.43%.

Consider `COC(=O)N1C[C@H]2CC[C@@H]1CN(Cc1ccncc1)C2`, for which the cytotoxicity at 70.5 h is -14.2%.

Consider `O=C(O)C1(Oc2cccc(F)c2)CCN(C2CCOCC2)CC1`, for which the cytotoxicity at 70.5 h is -6.65%.

As for `COc1cc(CN2CC(=O)N(c3ccc(C)cc3)CC2C)cc(OC)c1` (centres undefined), the cytotoxicity at 70.5 h is -12%.

For the compound `O=C(CCc1ccccc1)C1CCCN(Cc2cncn2C2CC2)C1` (centres undefined), the cytotoxicity at 70.5 h was 2.12%.

Turning to `CCCOCCN1CCc2[nH]c(-c3ccccc3)nc2C1`, the cytotoxicity at 70.5 h is 11.7%.

On to `CC(C)(O)CCc1cccc(C(=O)NCCC2=CSC3=NCCCN23)c1`, for which the cytotoxicity at 70.5 h is -0.369%.

Take `Cc1cc(CN2CC[C@@H]3[C@@H](CCC(=O)N3CCc3c[nH]cn3)C2)oc1C`: the cytotoxicity at 70.5 h is 1.03%.

Regarding `Cc1ccc(OC2(C(=O)O)CCN(C(=O)c3ccoc3C)CC2)cn1`, the cytotoxicity at 70.5 h is -0.44%.

As for `Cc1cc(N2CCC(CO)(CC3CCCCO3)CC2)nc2ccccc12` (centres undefined), the cytotoxicity at 70.5 h was -9.32%.

In the case of `Cc1nc2c(c(NCc3ccc(-c4ccccn4)s3)n1)CCNCC2`, the cytotoxicity at 70.5 h was -8.23%.

As for `CN(C)C(=O)N1C[C@H]2CC[C@@H]1CN(C1Cc3ccccc3C1)C2`, the cytotoxicity at 70.5 h was -9.42%.

Take `Cc1cc2c(N3CCC(N(C)CCc4cnn(C)c4)CC3)ncnc2s1`: the cytotoxicity at 70.5 h came to 2.46%.

As to `CN(C)c1nc2c(c(N(C)Cc3n[nH]c4c3CCCCC4)n1)CCNC2`, the cytotoxicity at 70.5 h was -9.48%.

On to `CN1CCCN(C(=O)c2nc3sccn3c2-c2ncc[nH]2)CC1`, for which the cytotoxicity at 70.5 h is -13%.

Consider `CCC(CO)N(Cc1ccccn1)C(=O)c1ccc(CSC)o1` (centres undefined), for which the cytotoxicity at 70.5 h is -0.517%.

`Cc1noc(C)c1-c1n[nH]c2c1CN(S(=O)(=O)c1ccsc1)CC2`: the cytotoxicity at 70.5 h came to 15.3%.

With `O=C(Cc1ccc2c(c1)OCO2)N1CCN(c2ccccc2Cl)C(=O)C1`, the cytotoxicity at 70.5 h was -4.7%.

With `CS(=O)(=O)N1C[C@H]2CC[C@@H]1CN(Cc1ccncc1)C2`, the cytotoxicity at 70.5 h is -10.9%.

With `Cc1nc2c(c(NCC(=O)NC(C)C)n1)Cc1ccccc1OC2`, the cytotoxicity at 70.5 h is -2.23%.

As to `CC(C)Cc1noc(CN(C)c2cc(N(C)C)ncn2)n1`, the cytotoxicity at 70.5 h was -7.9%.

Regarding `COCCN1CCC(CN(CC2CCCO2)C(=O)Cc2cccs2)CC1` (centres undefined), the cytotoxicity at 70.5 h was -4.23%.

With `CCn1c(C2CCCN(Cc3cc(C)cc(C)c3)C2)nn(C)c1=O` (centres undefined), the cytotoxicity at 70.5 h stood at 3.73%.

Take `CSc1ncc(CN2C[C@H]3CC[C@@H]2CN(C2CCOCC2)C3)cn1`: the cytotoxicity at 70.5 h is -3.4%.

As for `CCC[C@H]1CN(CCOC)C[C@@H]1NC(=O)Cn1cc(C)cn1`, the cytotoxicity at 70.5 h is 4.5%.

Turning to `CC(C)CCN1CC2(CCN(C(=O)C3(C)CCCCO3)CC2)OC1=O` (centres undefined), the cytotoxicity at 70.5 h was found to be 49.2%.

For the compound `CC(C)(C)CN1CCCC(O)(CN2CCc3[nH]ncc3C2)C1=O` (centres undefined), the cytotoxicity at 70.5 h was -1.48%.

Regarding `Cc1cc(C(=O)NC(C)C(=O)Nc2cc(F)ccc2C)nc(C)n1` (centres undefined), the cytotoxicity at 70.5 h was determined as 5.43%.

In the case of `CCc1cnc(NCCCOC2CCCC2)nc1`, the cytotoxicity at 70.5 h is -16.5%.

Take `COCCN(Cc1sccc1C)C(=O)COc1cccnc1`: the cytotoxicity at 70.5 h was -4.34%.

For the compound `Cc1ccc([C@@H]2CN(C(=O)c3cc[nH]c3)C[C@H]2NC(=O)C2CC2)cc1`, the cytotoxicity at 70.5 h was -10.7%.

`CN(CCc1noc(C2CC2)n1)C(=O)CCc1cc2n(n1)CCCNC2`: the cytotoxicity at 70.5 h was -9.33%.

As for `CCC(C)N(Cc1sccc1C)C(=O)c1cnc[nH]1` (centres undefined), the cytotoxicity at 70.5 h is -6.28%.

`O=C(O)c1coc(COc2cccc3cnccc23)n1`: the cytotoxicity at 70.5 h was -7.63%.

Consider `N#CC1(C(=O)N2C[C@H]3CC[C@@H]2CN(Cc2cscn2)C3)CCOCC1`, for which the cytotoxicity at 70.5 h worked out at 15.7%.

Regarding `O=C(c1ccccc1)N1C[C@@H]2CC[C@H](C1)N(Cc1cc(F)ccc1Cl)C2`, the cytotoxicity at 70.5 h is 27%.

On to `CC(=O)c1ccc(-c2cnn(CC(=O)Nc3ccnn3C)c2)nc1`, for which the cytotoxicity at 70.5 h was -9.08%.

Take `O=C(CN1CCCC1)N1CCCC(CNS(=O)(=O)Cc2ccccc2)C1` (centres undefined): the cytotoxicity at 70.5 h turned out to be 22.2%.

For `Cc1nc(C(C)Nc2ncnc3c2CCNCC3)c(C)s1` (centres undefined), the cytotoxicity at 70.5 h is -4.99%.

For the compound `CCOc1ccc(CN2CC[C@H]3CC[C@@H](C2)N3)cc1CO`, the cytotoxicity at 70.5 h was -14%.

For the compound `CCOC(=O)C1(Cc2cccc(OC)c2)CCCN(Cc2ncc[nH]2)C1` (centres undefined), the cytotoxicity at 70.5 h was determined as 22%.

Regarding `CCN1CC2(CCC1=O)CCN(Cc1cccc(OC(F)F)c1)CC2`, the cytotoxicity at 70.5 h was found to be 20.5%.

With `CC(O)CN1CC2(CCC1=O)CCN(C(=O)c1cnn(C)c1)CC2` (centres undefined), the cytotoxicity at 70.5 h is -1.73%.

As for `O=C(c1cccnc1SC/C=C/c1ccccc1)N1CC[C@H](O)C1`, the cytotoxicity at 70.5 h is 2.11%.

In the case of `CC(C)c1nnsc1CN1CCc2[nH]nc(-c3ccc(Cl)cc3)c2C1`, the cytotoxicity at 70.5 h is 9.53%.

With `COCCn1ccnc1C1CCN(C(=O)c2cccc(COC)n2)CC1`, the cytotoxicity at 70.5 h was -4.2%.

With `CC(C)c1cc(C2CCCN2C(=O)CN2C(=O)CCNC2=O)no1` (centres undefined), the cytotoxicity at 70.5 h was -5.21%.

Consider `O=C(CCN1CCCCO1)N1CCC(CO)(Cc2ccccc2)CC1`, for which the cytotoxicity at 70.5 h is -6.23%.

Take `CC1(C)CN(Cc2cc(C3CCCCC3)no2)CC[C@]1(C)O`: the cytotoxicity at 70.5 h was -12.5%.

As for `Cc1cc(C)c2nc(CNC3CCCNC3=O)cc(O)c2c1` (centres undefined), the cytotoxicity at 70.5 h was -6.5%.

For `COC(=O)CCCNC(=O)c1cc(COc2cncc(Cl)c2)on1`, the cytotoxicity at 70.5 h stood at 0.545%.

Regarding `O=C(C1CC1)N1CCc2c(ncnc2NCCc2nc3c(s2)CCC3)C1`, the cytotoxicity at 70.5 h worked out at 13.5%.

On to `Fc1ccccc1C1(CNC2CCOC3(CCOCC3)C2)CCCC1` (centres undefined), for which the cytotoxicity at 70.5 h is -9.34%.

Regarding `COc1cccc(OC)c1-c1c[nH]c(C)n1`, the cytotoxicity at 70.5 h was -19.9%.

In the case of `CC(C)C(C)N(Cc1cnc2ccccc2n1)Cc1ccco1` (centres undefined), the cytotoxicity at 70.5 h is -8.62%.

As for `CC(=O)Nc1ccc(CNC(=O)CNCc2sc(C)nc2C)cc1`, the cytotoxicity at 70.5 h worked out at 6.71%.

Regarding `CCC(NC(=O)CC1CCN(C(C)C)CC1)c1cn2cccnc2n1` (centres undefined), the cytotoxicity at 70.5 h was determined as 1.45%.

With `Cc1ccccc1N1CCN(c2nc(N(C)C)nc3c2CCNC3)CC1`, the cytotoxicity at 70.5 h turned out to be 33.6%.

For `Nc1nnc(SCC(=O)NCC(O)c2ccccc2)s1` (centres undefined), the cytotoxicity at 70.5 h was 18.6%.

As to `CCN(C)C[C@@H]1CN(S(=O)(=O)c2ccc(C#N)cc2)C[C@@H]1CO`, the cytotoxicity at 70.5 h is -1.6%.

Take `Cn1ncc2c(N3CCC(F)(F)CC3)nc(-c3ccncc3)nc21`: the cytotoxicity at 70.5 h is -13.7%.

As for `COc1ccc(-c2ccoc2)cc1CNC1CCCC1`, the cytotoxicity at 70.5 h was 10.7%.

For `CCc1nccc(CN2CCCC(CNC(=O)c3occc3C)C2)n1` (centres undefined), the cytotoxicity at 70.5 h was -10.1%.

Consider `COCc1ncc(CN(Cc2ccco2)C(C)C(C)C)cn1` (centres undefined), for which the cytotoxicity at 70.5 h is -15.5%.

For `Cc1nc(N)nc(C)c1CC(=O)N1CCCN(CC2CC2)C(C(C)C)C1` (centres undefined), the cytotoxicity at 70.5 h is -8.22%.

`CC(CNc1nccc(C(C)C)n1)Oc1cccnc1` (centres undefined): the cytotoxicity at 70.5 h is -6.89%.

As for `CCN(CC1=CCN(C)CC1)C(=O)CCOC`, the cytotoxicity at 70.5 h is -6.72%.

As to `CNc1ccnc(NCCC(=O)Nc2ccccc2OC)n1`, the cytotoxicity at 70.5 h was -3.36%.
